From ChEMBL document CHEMBL1135325, “Novel piperidinium and pyridinium agents as water-soluble acetylcholinesterase inhibitors for the reversal of neuromuscular blockade” (Bioorg Med Chem Lett, 2002)

How the values were obtained:
[1] = Aqueous solubility; assay type: physicochemical; details: water; for solubility: read-out: S
Acetylcholinesterase = Acetylcholinesterase (Homo sapiens, UniProt P22303); experiment: Concentration required for the inhibition of acetylcholinesterase
Acetylcholinesterase, sequence (P22303 whole entry): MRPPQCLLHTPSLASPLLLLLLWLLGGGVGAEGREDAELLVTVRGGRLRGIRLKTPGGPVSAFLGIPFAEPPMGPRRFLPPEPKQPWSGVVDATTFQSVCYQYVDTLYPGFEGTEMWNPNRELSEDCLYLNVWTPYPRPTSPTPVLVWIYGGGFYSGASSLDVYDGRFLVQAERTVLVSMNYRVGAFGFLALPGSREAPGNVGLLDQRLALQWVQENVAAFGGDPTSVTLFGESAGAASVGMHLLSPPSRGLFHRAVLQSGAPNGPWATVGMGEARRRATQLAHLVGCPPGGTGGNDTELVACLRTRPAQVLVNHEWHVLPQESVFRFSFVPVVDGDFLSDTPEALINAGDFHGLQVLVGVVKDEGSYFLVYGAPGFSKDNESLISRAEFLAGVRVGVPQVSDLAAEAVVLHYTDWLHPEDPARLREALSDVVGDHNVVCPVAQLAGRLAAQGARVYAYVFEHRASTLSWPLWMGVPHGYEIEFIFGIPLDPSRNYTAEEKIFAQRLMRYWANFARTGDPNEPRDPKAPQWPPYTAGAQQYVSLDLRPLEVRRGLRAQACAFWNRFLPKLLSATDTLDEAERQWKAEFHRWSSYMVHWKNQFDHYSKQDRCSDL

Row | SMILES | solubility [1] | IC50 (Acetylcholinesterase) | S [1] | Solubility (Aqueous solubility)
1 | CCC[n+]1ccc(CCC(=O)c2cc3cc(OC)c(OC)cc3s2)cc1.[Br-] | 16000 µg/mL |  |  | 
2 | COc1cc2cc(C(=O)CCc3cc[n+](Cc4ccc(F)cc4)cc3)sc2cc1OC | 1000 µg/mL | 2.6 nM |  | 
3 | COc1cc2cc(C(=O)CCC3CC[N+](C)(CC(=O)OC(C)(C)C)CC3)sc2cc1OC.[Br-] (stereo not drawn) | 1500 µg/mL | 79 nM |  | 
4 | COc1cc2cc(C(=O)CCc3cc[n+](Cc4ccsc4)cc3)sc2cc1OC | 2000 µg/mL | 6 nM |  | 
5 | COc1cc2cc(C(=O)CCc3cc[n+](C)cc3)sc2cc1OC.[Br-] | 3000 µg/mL | 900 nM |  | 
6 | COc1cc2cc(C(=O)CC(O)C3CC[N+](C)(Cc4ccccc4)CC3)sc2cc1OC (stereo in doubt; 9) [listing 1 of 2 here] |  | 190 nM |  | 
7 | COc1cc2cc(C=C3CC[N+](C)(Cc4ccccc4)CC3)sc2cc1OC.[Br-] (stereo not drawn) | 1000 µg/mL | 2670 nM |  | 
8 | COc1cc2cc(C(=O)CC(O)CCC3CC[N+](C)(Cc4ccccc4)CC3)sc2cc1OC.[Br-] (stereo not drawn) | 2500 µg/mL | 380 nM |  | 
9 | COc1cc2cc(C(=O)CC(O)C3CC[N+](C)(Cc4ccccc4)CC3)sc2cc1OC.[Br-] (single isomer, unassigned; (+)) | 10000 µg/mL | 219 nM |  | 
10 | COc1cc2cc(CC3CC[N+](C)(Cc4ccccc4)CC3)sc2cc1OC.[Br-] (stereo not drawn) | 3000 µg/mL | 10000 nM |  | 
11 | CCOCC[n+]1ccc(CCC(=O)c2cc3cc(OC)c(OC)cc3s2)cc1 | 50000 µg/mL | 7 nM |  | 
12 | COc1cc2cc(C(O)C3CC[N+](C)(Cc4ccccc4)CC3)sc2cc1OC.[Br-] (stereo not drawn) | 2000 µg/mL | 19600 nM |  | 
13 | COc1cc2cc(C(=O)CC3(O)CC[N+](C)(Cc4ccccc4)CC3)sc2cc1OC.[Br-] (stereo not drawn) | 1250 µg/mL |  |  | 
14 | COc1cc2cc(C(=O)CCc3cc[n+](Cc4ccc([N+](=O)[O-])o4)cc3)sc2cc1OC.[Br-] | 35000 µg/mL | 4.5 nM |  | 
15 | COC(=O)C[N+]1(C)CCC(CCC(=O)c2cc3cc(OC)c(OC)cc3s2)CC1.[Br-] (stereo not drawn) | 60000 µg/mL | 54 nM |  | 
16 | COc1cc2cc(C(=O)CCC3CC[N+](C)(CC#N)CC3)sc2cc1OC.[Br-] (stereo not drawn) | 2000 µg/mL | > 1000 nM |  | 
17 | COc1cc2cc(C(=O)CCC3CC[N+](C)(CCOc4ccccc4)CC3)sc2cc1OC.[Br-] (stereo not drawn) | 900 µg/mL | 390 nM |  | 
18 | COCC[n+]1ccc(CCC(=O)c2cc3cc(OC)c(OC)cc3s2)cc1 | 33000 µg/mL | 30 nM |  | 

Row | SMILES | solubility [1] | IC50 (Acetylcholinesterase) | S [1] | Solubility (Aqueous solubility)
19 | COc1cc2cc(C(=O)CCCCC3CC[N+](C)(Cc4ccccc4)CC3)sc2cc1OC.[Br-] (stereo not drawn) | 1000 µg/mL | 110 nM |  | 
20 | COc1cc2cc(C(=O)CCc3cc[n+](CC4CC4)cc3)sc2cc1OC.[Br-] | 15000 µg/mL | 110 nM |  | 
21 | COc1cc2cc(C(=O)CCC3CC[N+](C)(Cc4ccccc4)CC3)sc2cc1OC.[Br-] (stereo not drawn) | 2000 µg/mL |  |  | 
22 | COc1cc2cc(C(=O)CCc3cc[n+](CC4CCC4)cc3)sc2cc1OC.[Br-] | 6000 µg/mL | 40 nM |  | 
23 | COc1cc2cc(C(=O)CCc3cc[n+](Cc4ccccc4)cc3)sc2cc1OC | 2000 µg/mL |  |  | 
24 | COC(=O)c1ccc(C[n+]2ccc(CCC(=O)c3cc4cc(OC)c(OC)cc4s3)cc2)cc1 | 3500 µg/mL |  |  | 
25 | C=CC[n+]1ccc(CCC(=O)c2cc3cc(OC)c(OC)cc3s2)cc1.[Br-] | 25000 µg/mL | 540 nM |  | 
26 | COc1cc2cc(C(=O)C=C3CC[N+](C)(Cc4ccccc4)CC3)sc2cc1OC.[Br-] (stereo not drawn) | 25000 µg/mL | 520 nM |  | 
27 | COc1cc2cc(C(=O)CC(O)C3CC[N+](C)(Cc4ccccc4)CC3)sc2cc1OC.[Br-] (stereo in doubt; 6) |  | 43 nM | 10 mg/mL | 
28 | COc1cc2cc(C(=O)CC(O)C3CC[N+](C)(Cc4ccccc4)CC3)sc2cc1OC.[Br-] (single isomer, unassigned; (-)) |  | 665 nM | 8 mg/mL | 
29 | COc1cc2cc(C(=O)CC(O)C3CC[N+](C)(Cc4ccccc4)CC3)sc2cc1OC (stereo in doubt; 9) [listing 2 of 2 here] |  |  |  | 10000 µg/mL
30 | COCC[N+]1(C)CCC(CCC(=O)c2cc3cc(OC)c(OC)cc3s2)CC1.[Br-] (stereo not drawn) | 60000 µg/mL | 53 nM |  | 
31 | CC[n+]1ccc(CCC(=O)c2cc3cc(OC)c(OC)cc3s2)cc1.[Br-] | 25000 µg/mL | 280 nM |  | 
32 | COc1cc2cc(C(=O)CC(OC)C3CC[N+](C)(Cc4ccccc4)CC3)sc2cc1OC.[Br-] (stereo not drawn) | 1500 µg/mL | 120 nM |  | 
33 | COc1cc2cc(C(=O)CC3=CC[N+](C)(Cc4ccccc4)CC3)sc2cc1OC.[Br-] (stereo not drawn) | 20000 µg/mL | 750 nM |  | 
34 | COc1cc2cc(C(=O)CCC3CC[N+](C)(CC4CCCCO4)CC3)sc2cc1OC.[Br-] (stereo not drawn) | 1500 µg/mL | 28 nM |  | 
35 | COc1cc2cc(C(=O)CCC3CC[N+](C)(Cc4ccc([N+](=O)[O-])o4)CC3)sc2cc1OC.[Br-] (stereo not drawn) | 600 µg/mL | 32 nM |  | 
